# Data as given in US9701689B2, “Substituted pyridines and pyridazines as CCR10 receptor inhibitors” (KYOWA HAKKO KIRIN CO., LTD., priority 2012, dated 2017).
# Target: T1, human CCR10 (Homo sapiens, UniProt P46092)
# T1 construct: expressed in transfected cells; host or cells: KJMGER8 cells (Namalwa cell-derived line), beta-estradiol-induced; hCCR10G16 cells
# T1 sequence (P46092 1-362): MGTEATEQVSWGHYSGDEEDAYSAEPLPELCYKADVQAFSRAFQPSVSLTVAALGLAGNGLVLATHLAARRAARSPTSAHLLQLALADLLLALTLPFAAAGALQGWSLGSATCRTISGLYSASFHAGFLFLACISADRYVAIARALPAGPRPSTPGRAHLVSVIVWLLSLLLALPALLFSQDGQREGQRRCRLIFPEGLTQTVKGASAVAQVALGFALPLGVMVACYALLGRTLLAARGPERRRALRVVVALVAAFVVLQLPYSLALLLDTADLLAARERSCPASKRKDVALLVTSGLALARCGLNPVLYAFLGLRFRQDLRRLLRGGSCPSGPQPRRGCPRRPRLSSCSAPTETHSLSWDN
# Assay: CCR10 antagonistic effect: calcium assay of human CCR10 (CTACK-induced increase of intracellular calcium in hCCR10G16 cells)
# Type: cell-based
# Conditions: at a concentration of not more than 1000 nmol/L; human CCR10-expressing hCCR10G16 cells, 300 nmol/L CTACK added; read-out: inhibition of increase in the calcium ion concentration
# Method in brief: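 Inhibition of CTACK-evoked calcium flux (max minus min Fluo-3 fluorescence over ~5 min, FDSS) was calculated against control in β-estradiol-induced human CCR10/Gα16 KJMGER8 cells, after 30 min compound preincubation at 37 °C; CTACK added from a 300 nmol/L solution.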
row,Compound,inhibition at up to 1 µM
1,"COc1cc(F)ccc1Nc1cc(S(N)(=O)=O)ncc1C(=O)N1CCC(c2ccc(F)cc2)CC1 [Compound 99, 4-(4-fluoro-2-methoxyphenylamino)-5-[4-(4-fluorophenyl)piperidine-1-carbonyl]pyridine-2-sulfonamide]",≥ 50%
2,"Cc1cc(C(F)(F)F)ccc1Nc1cc(S(N)(=O)=O)ncc1C(=O)N1CCC(c2ccc(F)cc2)CC1 [Compound 100, 5-[4-(4-fluorophenyl)piperidine-1-carbonyl]-4-[2-methyl-4-(trifluoromethyl)phenylamino]pyridine-2-sulfonamide]",≥ 50%
3,"NS(=O)(=O)c1cc(Nc2ccccc2F)c(C(=O)N2CCC(c3ccc(F)cc3)CC2)cn1 [Compound 102, 5-[4-(4-fluorophenyl)piperidine-1-carbonyl]-4-(2-fluorophenylamino)pyridine-2-sulfonamide]",≥ 50%
4,"NS(=O)(=O)c1cc(Nc2cccc(Cl)c2)c(C(=O)N2CCC(c3ccc(F)cc3)CC2)cn1 [Compound 103, 4-(3-chlorophenylamino)-5-[4-(4-fluorophenyl)piperidine-1-carbonyl]pyridine-2-sulfonamide]",≥ 50%
5,"COc1cc(C)c(Nc2cc(S(N)(=O)=O)ncc2C(=O)N2CCC(c3ccc(F)cc3)CC2)cc1Cl [Compound 104, 4-(5-chloro-4-methoxy-2-methylphenylamino)-5-[4-(4-fluorophenyl)piperidine-1-carbonyl]pyridine-2-sulfonamide]",≥ 50%
6,"Cc1cc(O)c(Cl)cc1Nc1cc(S(N)(=O)=O)ncc1C(=O)N1CCC(c2ccc(F)cc2)CC1 [Compound 105, 4-(5-chloro-4-hydroxy-2-methylphenylamino)-5-[4-(4-fluorophenyl)piperidine-1-carbonyl]pyridine-2-sulfonamide]",≥ 50%
7,"NS(=O)(=O)c1cc(Nc2ccc(OC(F)F)cc2)c(C(=O)N2CCC(c3ccc(F)cc3)CC2)cn1 [Compound 106, 4-[4-(difluoromethoxy)phenylamino]-5-[4-(4-fluorophenyl)piperidine-1-carbonyl]pyridine-2-sulfonamide]",≥ 50%
8,"Cc1ccc(Nc2cc(S(N)(=O)=O)ncc2C(=O)N2CCC(c3ccc(F)cc3)CC2)cc1C [Compound 107, 4-(3,4-dimethylphenylamino)-5-[4-(4-fluorophenyl)piperidine-1-carbonyl]pyridine-2-sulfonamide]",≥ 50%
9,"Cc1ccc(Cl)cc1Nc1cc(S(N)(=O)=O)ncc1C(=O)N1CCC(c2ccc(F)cc2)CC1 [Compound 109, 4-(5-chloro-2-methylphenylamino)-5-[4-(4-fluorophenyl)piperidine-1-carbonyl]pyridine-2-sulfonamide]",≥ 50%
10,"Cc1cc(C)cc(Nc2cc(S(N)(=O)=O)ncc2C(=O)N2CCC(c3ccc(F)cc3)CC2)c1 [Compound 110, 4-(3,5-dimethylphenylamino)-5-[4-(4-fluorophenyl)piperidine-1-carbonyl]pyridine-2-sulfonamide]",≥ 50%
11,"CNS(=O)(=O)c1cc(Nc2ccc(F)cc2C)c(C(=O)N2CCC(c3ccc(F)cc3)CC2)cn1 [Compound 111, 4-(4-fluoro-2-methylphenylamino)-5-[4-(4-fluorophenyl)piperidine-1-carbonyl]-N-methylpyridine-2-sulfonamide]",≥ 50%
12,"COCCNS(=O)(=O)c1cc(Nc2ccc(F)cc2C)c(C(=O)N2CCC(c3ccc(F)cc3)CC2)cn1 [Compound 112, 4-(4-fluoro-2-methylphenylamino)-5-[4-(4-fluorophenyl)piperidine-1-carbonyl]-N-(2-methoxyethyl)pyridine-2-sulfonamide]",≥ 50%
13,"COC(=O)C1CCCN1S(=O)(=O)c1cc(Nc2ccc(F)cc2C)c(C(=O)N2CCC(c3ccc(F)cc3)CC2)cn1 (stereo not shown) [Compound 116, methyl 1-{4-(4-fluoro-2-methylphenylamino)-5-[4-(4-fluorophenyl)piperidine-1-carbonyl]pyridin-2-ylsulfonyl}pyrrolidine-2-carboxylate]",≥ 50%
14,"CNC(=O)C1CCCN1S(=O)(=O)c1cc(Nc2ccc(F)cc2C)c(C(=O)N2CCC(c3ccc(F)cc3)CC2)cn1 (stereo not shown) [Compound 117, 1-{4-(4-fluoro-2-methylphenylamino)-5-[4-(4-fluorophenyl)piperidine-1-carbonyl]pyridin-2-ylsulfonyl}-N-methylpyrrolidine-2-carboxamide]",≥ 50%
15,"Cc1cc(F)ccc1Nc1cc(S(=O)(=O)N2CCCC2)ncc1C(=O)N1CCC(c2ccc(F)cc2)CC1 [Compound 119, [4-(4-fluoro-2-methylphenylamino)-6-(pyrrolidin-1-ylsulfonyl)pyridin-3-yl][4-(4-fluorophenyl)piperidin-1-yl]methanone]",≥ 50%
16,"Cc1cc(F)ccc1Nc1cc(S(=O)(=O)N2CCCC2C(=O)O)ncc1C(=O)N1CCC(c2ccc(F)cc2)CC1 (stereo not shown) [Compound 120, 1-{4-(4-fluoro-2-methylphenylamino)-5-[4-(4-fluorophenyl)piperidine-1-carbonyl]pyridin-2-ylsulfonyl}pyrrolidine-2-carboxylic acid]",≥ 50%
17,"Cc1cc(F)ccc1Nc1cc(S(=O)(=O)N2CCCCC2)ncc1C(=O)N1CCC(c2ccc(F)cc2)CC1 [Compound 121, [4-(4-fluoro-2-methylphenylamino)-6-(piperidin-1-ylsulfonyl)pyridin-3-yl][4-(4-fluorophenyl)piperidin-1-yl]methanone]",≥ 50%
18,"Cc1cc(F)ccc1Nc1cc(S(=O)(=O)N2CCOCC2)ncc1C(=O)N1CCC(c2ccc(F)cc2)CC1 [Compound 122, [4-(4-fluoro-2-methylphenylamino)-6-(morpholinosulfonyl)pyridin-3-yl][4-(4-fluorophenyl)piperidin-1-yl]methanone]",≥ 50%
19,"Cc1cc(F)ccc1Nc1cc(S(=O)(=O)N2CCCC2C(N)=O)ncc1C(=O)N1CCC(c2ccc(F)cc2)CC1 (stereo not shown) [Compound 123, 1-{4-(4-fluoro-2-methylphenylamino)-5-[4-(4-fluorophenyl)piperidine-1-carbonyl]pyridin-2-ylsulfonyl}pyrrolidine-2-carboxamide]",≥ 50%
20,"CC(=O)N1CCN(S(=O)(=O)c2cc(Nc3ccc(F)cc3C)c(C(=O)N3CCC(c4ccc(F)cc4)CC3)cn2)CC1 [Compound 124, 1-{4-{4-(4-fluoro-2-methylphenylamino)-5-[4-(4-fluorophenyl)piperidine-1-carbonyl]pyridin-2-ylsulfonyl}piperazin-1-yl}ethanone]",≥ 50%
21,"Cc1cc(F)ccc1Nc1cc(S(=O)(=O)N(C)C)ncc1C(=O)N1CCC(c2ccc(F)cc2)CC1 [Compound 125, 4-(4-fluoro-2-methylphenylamino)-5-[4-(4-fluorophenyl)piperidine-1-carbonyl]-N,N-dimethylpyridine-2-sulfonamide]",≥ 50%
22,"Cc1cc(F)ccc1Nc1cc(S(=O)(=O)NCC(=O)N2CCOCC2)ncc1C(=O)N1CCC(c2ccc(F)cc2)CC1 [Compound 130, 4-(4-fluoro-2-methylphenylamino)-5-[4-(4-fluorophenyl)piperidine-1-carbonyl]-N-(2-morpholino-2-oxoethyl)pyridine-2-sulfonamide]",≥ 50%
23,"CC(=O)CNS(=O)(=O)c1cc(Nc2ccc(F)cc2C)c(C(=O)N2CCC(c3ccc(F)cc3)CC2)cn1 [Compound 131, 4-(4-fluoro-2-methylphenylamino)-5-[4-(4-fluorophenyl)piperidine-1-carbonyl]-N-(2-oxopropyl)pyridine-2-sulfonamide]",≥ 50%
24,"Cc1cnc(CNS(=O)(=O)c2cc(Nc3ccc(F)cc3C)c(C(=O)N3CCC(c4ccc(F)cc4)CC3)cn2)cn1 [Compound 134, 4-(4-fluoro-2-methylphenylamino)-5-[4-(4-fluorophenyl)piperidine-1-carbonyl]-N-[(5-methylpyrazin-2-yl)methyl]pyridine-2-sulfonamide]",≥ 50%
25,"Cc1cc(F)ccc1Nc1cc(S(=O)(=O)NCC#N)ncc1C(=O)N1CCC(c2ccc(F)cc2)CC1 [Compound 135, N-(cyanomethyl)-4-(4-fluoro-2-methylphenylamino)-5-[4-(4-fluorophenyl)piperidine-1-carbonyl]pyridine-2-sulfonamide]",≥ 50%
26,"CC(=O)NC1CCN(S(=O)(=O)c2cc(Nc3ccc(F)cc3C)c(C(=O)N3CCC(c4ccc(F)cc4)CC3)cn2)CC1 [Compound 136, N-{1-{4-(4-fluoro-2-methylphenylamino)-5-[4-(4-fluorophenyl)piperidine-1-carbonyl]pyridin-2-ylsulfonyl}piperidin-4-yl}acetamide]",≥ 50%
27,"Cc1cc(F)ccc1Nc1cc(S(=O)(=O)N2CCC(C(N)=O)CC2)ncc1C(=O)N1CCC(c2ccc(F)cc2)CC1 [Compound 138, 1-{4-(4-fluoro-2-methylphenylamino)-5-[4-(4-fluorophenyl)piperidine-1-carbonyl]pyridin-2-ylsulfonyl}piperidine-4-carboxamide]",≥ 50%
28,"CNC(=O)[C@@H]1C[C@@H](O)CN1S(=O)(=O)c1cc(Nc2ccc(F)cc2C)c(C(=O)N2CCC(c3ccc(F)cc3)CC2)cn1 [Compound 141, (2S,4R)-1-{4-(4-fluoro-2-methylphenylamino)-5-[4-(4-fluorophenyl)piperidine-1-carbonyl]pyridin-2-ylsulfonyl}-4-hydroxy-N-methylpyrrolidine-2-carboxamide]",≥ 50%
